The conditions of data set [1]: cited from earlier work.
Data set [2] deals with Tropomyosin receptor kinase B (TrkB) (Homo sapiens, UniProt Q16620). The following applies: Moliner 2023; cited from earlier work.
Data set [3] deals with NMDA receptors. The following applies: Moliner 2023; cited from earlier work.
A short description of data set [4]: Mystical Experience Questionnaire (MEQ30) after inhaling DMT according to a disclosed method. In kind it is in vivo, human. The text has this: (§1) The study included nine participants with the following demographic characteristics:
(§2) For the MEQ and CEQ higher scores indicate a more mystical experience and a more challenging experience, respectively.

The nature of data set [5]: Challenging Experience Questionnaire (CEQ) after inhaling DMT according to a disclosed method. In kind it is in vivo, human.
Description: as §1, §2

The target in data set [6] is 5-HT1B (Homo sapiens, UniProt P28222). As to conditions: Halberstadt & Geyer 2011; cited from earlier work.
The target of data set [7] is 5-HT1D (Homo sapiens, UniProt P28221). The following applies: Halberstadt & Geyer 2011; cited from earlier work.
Data set [8] concerns the target 5-HT1E (Homo sapiens, UniProt P28566). As to conditions: Halberstadt & Geyer 2011; cited from earlier work.
Data set [9] concerns the target 5-HT2A (Homo sapiens, UniProt P28223). As to conditions: Halberstadt & Geyer 2011; cited from earlier work.
In data set [10] the target is 5-HT5A (Homo sapiens, UniProt P47898). As to conditions: Halberstadt & Geyer 2011; cited from earlier work.
For data set [11], the target named is 5-HT6 (Homo sapiens, UniProt P50406). The following applies: Halberstadt & Geyer 2011; cited from earlier work.
Data set [12] has as its target 5-HT7 (Homo sapiens, UniProt P34969). As to conditions: Halberstadt & Geyer 2011; cited from earlier work.
Data set [13] has as its target sigma-1 receptor (Homo sapiens, UniProt Q99720). The following applies: Fontanilla 2009; Ray 2010; cited from earlier work.
For data set [14] the following is noted: cited from earlier work. The source holds these as a separate data set.
The conditions of data set [15]: comparable to psilocin; Jones 2024; cited from earlier work.
The mark [16] stands for this setting: MEQ30 item score, c1-c9 = participants 1-9, after inhaled DMT per disclosed method.
[17] abbreviates: mean item score per participant, r7-r15 = participants 1-9.
Setting [18] is: mean over the nine participants.
[19] abbreviates: total per participant, r7-r15 = participants 1-9.
The mark [20] stands for this setting: per participant, r8-r16 = participants 1-9.

This is an account of results in US12396981B2 (priority 2023, dated 2025).

Each structure is given as a SMILES string. “And” between values parts separate entries of the source, which are not always exact repeats. Identical values can stand only once.

Sequence of Tropomyosin receptor kinase B (TrkB) (Q16620 32-822, species assumed): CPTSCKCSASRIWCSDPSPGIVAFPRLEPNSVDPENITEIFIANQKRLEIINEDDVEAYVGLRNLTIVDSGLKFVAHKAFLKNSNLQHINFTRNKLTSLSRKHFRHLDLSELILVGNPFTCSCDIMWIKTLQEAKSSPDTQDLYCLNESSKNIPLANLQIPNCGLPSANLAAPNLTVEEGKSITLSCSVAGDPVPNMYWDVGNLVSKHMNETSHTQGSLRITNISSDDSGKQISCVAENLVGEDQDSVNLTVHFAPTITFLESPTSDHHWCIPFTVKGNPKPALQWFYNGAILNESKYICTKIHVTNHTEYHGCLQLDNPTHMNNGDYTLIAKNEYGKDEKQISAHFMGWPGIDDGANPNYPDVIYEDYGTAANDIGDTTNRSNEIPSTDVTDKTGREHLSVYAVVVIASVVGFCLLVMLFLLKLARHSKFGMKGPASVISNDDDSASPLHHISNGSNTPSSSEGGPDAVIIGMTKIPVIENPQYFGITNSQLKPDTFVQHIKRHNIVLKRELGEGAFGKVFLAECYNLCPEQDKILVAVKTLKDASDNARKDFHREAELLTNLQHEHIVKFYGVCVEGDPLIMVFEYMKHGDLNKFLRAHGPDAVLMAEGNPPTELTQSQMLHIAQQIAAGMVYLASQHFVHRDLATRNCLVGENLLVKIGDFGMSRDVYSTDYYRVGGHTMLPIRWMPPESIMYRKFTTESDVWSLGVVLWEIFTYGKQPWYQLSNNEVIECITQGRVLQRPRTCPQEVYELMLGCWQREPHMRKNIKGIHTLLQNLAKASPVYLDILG
Sequence of 5-HT1B (P28222 whole entry, species assumed): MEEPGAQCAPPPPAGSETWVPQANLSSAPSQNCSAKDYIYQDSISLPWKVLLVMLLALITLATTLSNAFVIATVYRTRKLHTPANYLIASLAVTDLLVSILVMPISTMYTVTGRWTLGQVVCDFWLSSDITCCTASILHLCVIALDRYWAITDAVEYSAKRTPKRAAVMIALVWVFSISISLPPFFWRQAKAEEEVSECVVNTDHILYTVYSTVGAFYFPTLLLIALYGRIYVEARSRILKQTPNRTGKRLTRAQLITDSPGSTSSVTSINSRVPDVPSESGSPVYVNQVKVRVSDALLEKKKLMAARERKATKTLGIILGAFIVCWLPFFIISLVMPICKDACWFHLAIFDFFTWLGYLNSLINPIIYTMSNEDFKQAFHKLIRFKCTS
Sequence of sigma-1 receptor (Q99720 whole entry, species assumed): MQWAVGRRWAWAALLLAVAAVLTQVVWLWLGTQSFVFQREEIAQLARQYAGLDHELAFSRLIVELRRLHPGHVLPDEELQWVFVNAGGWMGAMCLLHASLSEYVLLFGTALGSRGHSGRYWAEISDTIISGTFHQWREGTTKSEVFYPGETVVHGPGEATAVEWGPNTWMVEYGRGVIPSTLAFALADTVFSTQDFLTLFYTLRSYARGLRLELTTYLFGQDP
Sequence of 5-HT1D (P28221 whole entry, species assumed): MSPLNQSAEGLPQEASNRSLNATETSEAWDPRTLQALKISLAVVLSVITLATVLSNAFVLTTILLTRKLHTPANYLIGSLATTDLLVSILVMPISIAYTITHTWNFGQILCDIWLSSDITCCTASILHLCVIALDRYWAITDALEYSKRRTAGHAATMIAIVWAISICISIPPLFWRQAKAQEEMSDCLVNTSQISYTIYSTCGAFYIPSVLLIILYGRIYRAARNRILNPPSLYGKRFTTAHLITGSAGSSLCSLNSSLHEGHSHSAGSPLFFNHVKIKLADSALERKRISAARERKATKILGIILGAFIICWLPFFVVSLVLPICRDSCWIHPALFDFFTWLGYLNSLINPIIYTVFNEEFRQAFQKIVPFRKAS
Sequence of 5-HT7 (P34969 whole entry, species assumed): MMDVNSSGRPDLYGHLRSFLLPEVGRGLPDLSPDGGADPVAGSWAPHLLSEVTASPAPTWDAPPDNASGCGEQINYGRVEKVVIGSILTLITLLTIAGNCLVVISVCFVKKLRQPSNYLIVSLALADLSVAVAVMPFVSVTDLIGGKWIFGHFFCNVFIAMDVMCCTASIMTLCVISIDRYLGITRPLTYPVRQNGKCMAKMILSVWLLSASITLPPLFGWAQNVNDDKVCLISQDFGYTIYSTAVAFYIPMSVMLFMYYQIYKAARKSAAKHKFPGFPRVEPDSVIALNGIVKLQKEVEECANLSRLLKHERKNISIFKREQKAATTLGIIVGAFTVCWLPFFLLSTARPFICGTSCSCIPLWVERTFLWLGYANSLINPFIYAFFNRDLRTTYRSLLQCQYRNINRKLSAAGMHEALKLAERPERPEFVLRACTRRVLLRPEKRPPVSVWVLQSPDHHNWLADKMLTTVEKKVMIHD
Sequence of 5-HT2A (P28223 whole entry): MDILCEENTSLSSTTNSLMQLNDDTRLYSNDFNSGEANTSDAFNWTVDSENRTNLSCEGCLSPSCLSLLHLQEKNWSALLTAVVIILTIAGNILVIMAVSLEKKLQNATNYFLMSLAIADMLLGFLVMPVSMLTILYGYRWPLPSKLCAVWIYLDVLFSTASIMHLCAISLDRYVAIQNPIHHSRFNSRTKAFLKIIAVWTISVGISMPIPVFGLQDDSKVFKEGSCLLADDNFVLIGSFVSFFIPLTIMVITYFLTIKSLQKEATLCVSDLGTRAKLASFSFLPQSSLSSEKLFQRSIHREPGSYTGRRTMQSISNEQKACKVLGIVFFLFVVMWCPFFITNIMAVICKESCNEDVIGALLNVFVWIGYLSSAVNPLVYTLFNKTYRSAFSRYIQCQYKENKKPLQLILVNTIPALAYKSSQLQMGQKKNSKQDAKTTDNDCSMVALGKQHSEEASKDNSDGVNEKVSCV
Sequence of 5-HT1E (P28566 whole entry, species assumed): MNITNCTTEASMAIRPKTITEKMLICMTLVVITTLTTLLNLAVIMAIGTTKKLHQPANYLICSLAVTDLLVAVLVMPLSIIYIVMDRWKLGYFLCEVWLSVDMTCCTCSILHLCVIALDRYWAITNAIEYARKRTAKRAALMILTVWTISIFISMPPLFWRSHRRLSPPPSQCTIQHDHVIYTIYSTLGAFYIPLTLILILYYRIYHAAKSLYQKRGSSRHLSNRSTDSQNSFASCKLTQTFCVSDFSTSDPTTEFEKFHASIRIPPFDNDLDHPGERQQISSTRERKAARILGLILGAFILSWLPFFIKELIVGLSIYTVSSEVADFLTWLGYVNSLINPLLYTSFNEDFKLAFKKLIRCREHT
Sequence of 5-HT5A (P47898 whole entry, species assumed): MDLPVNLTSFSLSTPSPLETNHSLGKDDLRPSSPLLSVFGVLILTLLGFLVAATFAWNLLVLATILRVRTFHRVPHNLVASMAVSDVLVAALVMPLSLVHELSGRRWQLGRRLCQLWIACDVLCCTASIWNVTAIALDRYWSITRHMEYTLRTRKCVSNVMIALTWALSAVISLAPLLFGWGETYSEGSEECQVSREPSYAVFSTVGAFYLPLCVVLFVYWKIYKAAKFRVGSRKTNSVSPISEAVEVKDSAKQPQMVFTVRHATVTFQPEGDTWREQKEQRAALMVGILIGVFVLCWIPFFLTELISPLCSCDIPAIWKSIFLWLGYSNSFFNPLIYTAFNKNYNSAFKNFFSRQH
Sequence of 5-HT6 (P50406 whole entry, species assumed): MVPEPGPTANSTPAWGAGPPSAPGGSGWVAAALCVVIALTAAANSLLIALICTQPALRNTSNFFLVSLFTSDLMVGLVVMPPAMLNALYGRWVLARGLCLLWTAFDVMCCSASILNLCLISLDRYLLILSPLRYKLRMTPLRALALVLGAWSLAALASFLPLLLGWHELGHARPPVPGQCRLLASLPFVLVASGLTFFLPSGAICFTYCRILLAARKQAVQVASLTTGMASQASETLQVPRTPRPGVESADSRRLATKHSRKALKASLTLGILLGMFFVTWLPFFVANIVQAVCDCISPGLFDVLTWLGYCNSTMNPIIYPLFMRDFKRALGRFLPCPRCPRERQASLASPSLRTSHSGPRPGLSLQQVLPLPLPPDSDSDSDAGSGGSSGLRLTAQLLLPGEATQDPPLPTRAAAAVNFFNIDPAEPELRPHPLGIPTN

Take `O=C1Nc2ccc(Cl)cc2C(c2ccccc2Cl)=NC1O` (racemic) [Lorazepam, ±7-chloro-5-(2-chlorophenyl)-1,3-dihydro-3-hydroxy-2H-1,4-benzodiazepin-2-one]: in data set [1] (after oral administration), the “time of peak plasma concentrations (Tmax)” value is reported as “about 2 hours”. In addition, the “half-life in human plasma” value in data set [1] (human plasma) was “about 12 hours”.
With `CNC1(c2ccccc2Cl)CCCCC1=O` (stereo not shown) [Ketamine], the “binding to TrkB” value in data set [2] was “does directly bind to TrkB”.
As for `N[C@@]1(c2ccccc2Cl)CCC[C@@H](O)C1=O` [2R,6R-hydroxynorketamine], the “binding to TrkB” value in data set [2] is “binds to TrkB”. For the same molecule, in data set [3], the “affinity to NMDA receptors” value was “low affinity”.
As for `CN(C)CCc1c[nH]c2ccccc12` [DMT, N,N-dimethyltryptamine], in data set [4] (setting [16]), the “2.1 Experience of amazement.” value was 3 and 5 and 4; the “2.4 Experience of ecstasy.” value is 3 and 5 and 4; the “2.5 Sense of awe or awesomeness.” value is 3 and 5 and 4; the “2.6 Feelings of joy.” value is 3 and 4 and 5. In addition, in data set [4] (setting [16]), the “4.2 Feeling that you could not do justice to your experience by describing it in words.” value is 4 and 3 and 5; the “4.3 Feeling that it would be difficult to communicate your own experience to others who have not had similar experiences.” value was 3 and 4 and 5. Also, in data set [4] (setting [17]), the “Ineffability, mean participant score (MEQ30 dimension)” value is 5.00 (4×) and 4.00 (3×) and 3.00 (2×); the “Mysticism, mean participant score (MEQ30 dimension)” value was 2.53 and 3.33 and 5.00 and 3.87 and 4.00 (2×) and 4.73 and 1.33 and 3.60; the “Positive Mood, mean participant score (MEQ30 dimension)” value was 4.33 (2×) and 3.50 (2×) and 4.83 and 4.50 and 2.67 (2×) and 5.00; the “Transcendence, mean participant score (MEQ30 dimension)” value was 2.83 and 5.00 (2×) and 3.83 and 4.00 and 1.50 and 2.67 and 3.50. In data set [4] (setting [18]), the “Ineffability, Mean (MEQ30 dimension)” value amounted to 4.22; the “Mysticism, Mean (MEQ30 dimension)” value came out at 3.60; the “Positive Mood, Mean (MEQ30 dimension)” value worked out at 3.93; the “Transcendence, Mean (MEQ30 dimension)” value is listed as 3.35. Besides, in data set [4] (nine participants), the “participants with a score >= 60% of the maximum score on the Ineffability subscale” value stood at 100%; the “participants with a score >= 60% of the maximum score on the Mystical and Positive Mood subscales” value was 78%; the “participants with a score >= 60% of the maximum score on the Transcendence of Time and Space subscale” value was found to be 55%; the “participants with a score >= 75% of the maximum score on the Ineffability subscale” value amounted to 78%. In data set [4] (nine participants), the “participants with a score >= 75% of the maximum score on the Transcendence of Time and Space subscale” value worked out at 44%; the “participants with a score >= 75% of the maximum scores on the Mystical and Positive Mood subscales” value is given as 55%; the “participants with a score of greater than or equal to 60% on at least one MEQ30 subscale” value is “all participants”. In addition, in data set [4] (setting [19]), the “Ineffability, total score (MEQ30 subscale)” value was 15 (4×) and 12 (3×) and 9 (2×); the “Mysticism, total score (MEQ30 subscale)” value is 38 and 50 and 75 and 58 and 60 (2×) and 71 and 20 and 54; the “Positive Mood, total score (MEQ30 subscale)” value was 26 (2×) and 21 (2×) and 29 and 27 and 16 (2×) and 30; the “Transcendence, total score (MEQ30 subscale)” value was 17 and 11 and 30 (2×) and 23 and 24 and 9 and 16 and 21. Moreover, in data set [5] (Fear, Physical Distress, Insanity, Isolation, Death, and Paranoia subscales), the “mean participant score, of the maximum score” value is reported as “less than 6%”. In addition, in data set [5] (each CEQ subscale), the “mean participant score on each of the CEQ subscales, of the maximum possible score” value is given as at most 10%. Besides, in [5] (setting [18]), the “Death, Mean (CEQ dimension)” value came out at 0.44; the “Fear, Mean (CEQ dimension)” value was determined as 1.889; the “Grief, Mean (CEQ dimension)” value worked out at 3.11; the “Insanity, Mean (CEQ dimension)” value came out at 0.89. In data set [5] (setting [18]), the “Isolation, Mean (CEQ dimension)” value stood at 0.78; the “Paranoia, Mean (CEQ dimension)” value is 0.44; the “Physical Distress, Mean (CEQ dimension)” value worked out at 0.89. In data set [5] (setting [20]), the “Death (CEQ dimension score)” value was 1 (2×) and 2 and 0 (6×); the “Fear (CEQ dimension score)” value was 0 (5×) and 5 (3×) and 2; the “Grief (CEQ dimension score)” value was 1 and 6 (2×) and 0 (4×) and 12 and 3; the “Insanity (CEQ dimension score)” value is 0 (5×) and 3 and 2 (2×) and 1. Further, in [5] (setting [20]), the “Isolation (CEQ dimension score)” value was 0 (7×) and 3 and 4; the “Paranoia (CEQ dimension score)” value is 0 (7×) and 2 (2×); the “Physical Distress (CEQ dimension score)” value was 1 (3×) and 5 and 0 (5×). In [6], the Ki is 129 nM. The Ki in [7] was 39 nM. The Ki in data set [8] is 517 nM. The Ki in data set [9] was 127 nM. For the same molecule, the Ki in data set [10] is 2140 nM. Further, the Ki in data set [11] was 464 nM. The Ki in data set [12] is 206 nM. In data set [13], the “binding to the sigma-1 receptor” value is “binds to the sigma-1 receptor”. For the same molecule, the “binding to TrkB” value in data set [2] is “do not bind TrkB directly”. The “half life from the blood” value in [14] (blood) is on record as “less than 16 minutes”. The “half life from the brain” value in data set [14] (brain) was “less than six”.
Regarding `CN(C)CCc1c[nH]c2cccc(O)c12` [Psilocin, 4-hydroxy-N,N-dimethyltryptamine], the values for the Ki in data set [6] and in data set [7] were 220 nM and 36.4 nM, respectively. Also, the “binding to the sigma-1 receptor” value in data set [13] is on record as “no affinity”.
On to `CC(=O)Oc1cccc2[nH]cc(CCN(C)C)c12` [Psilacetin, 4-acetoxy-N,N-dimethyltryptamine], for which the “duration of subjective effects” value in [15] is 4 to 8 h.
